Experimental data as given in patent US20030207843A1, “Treatment of drug-resistant human immunodeficiency virus infection” (priority 1999, published 2003).
Read-outs that look alike come from different tables or passages of the source.

Assays:
[1] = test system: HIV-1LAI 4XAZT (D67N, K70R, T215Y, K219Q); assay: p24 reduction assay in MT-2 cells, 4XAZT; format: cell-based
Procedure: (§1) Cells. MT-2 cells (AIDS Research and Reference Reagent Program, National Institute of Allergy and Infectious Diseases, National Institutes of Health) were maintained in RPMI 1640 supplemented with 10% fetal bovine serum (FBS; JRH Biosciences, Lenexa, Kans.), 10 mM HEPES buffer, 50 IU/ml penicillin and 50 μg/ml streptomycin.
(§2) Antiviral Susceptibility Assays. The antiviral activity of each compound was determined by inoculating MT-2 cells with HIV-1LAI at a multiplicity of infection (MOI) of 0.01 TCID50/cell, followed by incubation in the presence of three-fold serial drug dilutions (3 wells per dilution) (see Mellors, et. al., Antimicrob. Agents Chemother. 39:1087-1092). Five or seven days after infection, culture supernatants were harvested, lysed with 0.5% triton-X 100 and assayed for p24 antigen concentration using a commercial ELISA assay (DuPont, NEN Products, Wilmington, Del.). The antiviral activity of the compounds is expressed as the IC50, which is the concentration required to inhibit 50% of p24 antigen production. The fold-resistance of a test virus is calculated by dividing the IC50 of the test virus by the IC50 of the HIV-1LAI control virus.
(§3) Generation of Mutant Recombinant HIV-1. HIV-1 containing the desired mutations were generated by oligonucleotide directed mutagenesis (Altered Sites II, Promega) as previously described (Mellors, et. al., Molecular Pharm. 41:446-451). After mutagenesis, mutant RT was subcloned into the pxxHIV-1LAI cloning vector using the silent XmaI and XbaI restriction sites located at the 5′ and 3′ ends of RT. Clones were DNA sequenced to verify the presence of the desired mutation(s) and electroporated into MT-2 cells as described above to generate infectious mutant recombinant HIV-1.
(§4) Mutant RT was generated via oligonucleotide-directed mutagenesis and ligated into the pXXHIV-1LAI cloning vector. Cloning was facilitated by the presence of two silent restriction sites at the 5′ and 3′ ends (Xma1 and Xba1, respectively) of pXXHIV-1LAI RT. Infectious mutant recombinant HIV-1 was generated by electroporating MT-2 cells with mutated pXXHIV-1LAI clones. The presence of the desired mutations was verified by DNA sequencing.
The multi-drug resistant HIV-1 strains, 11163p1 and 11588p1, are human clinical isolates having the RT mutations indicated. HIV-1 strains treated with the lipid analogs of the present invention include wild type, e.g., xxLAI, and the like, single mutation, e.g., xxLAI MI 84V (resistant to 3TC), xxLAI L74V (resistant to ddI and ddC), xxLAI K65R (resistant to ddI, ddC, DAPD, DXG, tenofovir, and adefovir), xxLAI T215Y (resistant to AZT), and the like, double mutations, e.g., xxLAI M41 L/T215Y (resistant to AZT), xxLAI MI 84V/T215Y (resistant to 3TC and AZT), and the like, and multiple mutations, e.g., xxLAI 4XAZT ((D67N, K70R, T215Y, K219Q) resistant to AZT)), xxLAI 4XAZT/M184V ((D67N, K70R, M 184V, T215Y, K219Q) resistant to AZT and 3TC), xxLAI M5456-12 (AZT+NNRTI resistant: D67N, K70R, K103N, T215Y), xxLAI G2-3g (AZT/3TC co-resistant: M41L, D67N, M184V, H208Y, L210W, R211K, L214F, T215Y, 1293V, E297A), 11163 (multinucleoside resistant virsus: M41L, A62V, V751, F77L, K103N, F116Y, Q151M, Y181C, M184V), 11588 (multinucleoside resistant virsus: A62V, K65R, K70R, V751, F77L, F116Y, Q151M, M184V, K219Q), and the like.

MT-2 cells = assay: In vitro selectivity index in MT-2 cells; format: cell-based; conditions: (50% cytotoxic dose/50% effective dose)×100
Procedure: The in vitro selectivity indexes for PFA and lipid analogs of PFA were determined in MT-2 cells and are as follows:
Note that the selectivity index ((50% cytotoxic dose/50% effective dose)×100) is much greater for the lipid analogs of PFA than for PFA itself. Since the lipid analogs have a much greater oral absorption than PFA, they may be given orally for controlling replication of drug-resistant HIV either alone or in combination with one or more antiviral agents. AZT is especially preferred in combination with the lipid analogs of PFA.

HIV-1LAI M184V/T215Y = assay: p24 reduction assay in MT-2 cells, M184V/T215Y; format: cell-based; conditions: Table 1, MOI 0.01
Procedure: as §1, §2, §3
Mutant RT was generated via oligonucleotide-directed mutagenesis and ligated into the pXXHIV-1LAI cloning vector. Cloning was facilitated by the presence of two silent restriction sites at the 5′ and 3′ ends (Xma1 and Xba1, respectively) of pXXHIV-1LAI RT. […]

[2] = test system: multidrug-resistant HIV-1 clinical isolate 11163p1; assay: p24 reduction assay in MT-2 cells, 11163p1; format: cell-based
Procedure: as §1
as §2, with “[…],” for “was determined by inoculating MT-2 cells with HIV-1LAI at a multiplicity of infection (MOI) of 0.01 TCID50/cell,”
The multi-drug resistant HIV-1 strains, 11163p1 and 11588p1, are human clinical isolates having the RT mutations indicated. […]

[3] = test system: 11163p3 (multinucleoside resistant clinical isolate); assay: p24 reduction assay in MT-2 cells, 11163p3; format: cell-based, HIV-1; conditions: Table 4; for EC50: 11163p3, mean ± SD; for Fold-resistance: 11163p3 relative to wild type virus
Procedure: as §1, §2
The MNR panel consisted of a virus containing the mutations V75I, F77L, F116Y and […], a virus containing the T69S[SA insert], and a clinical isolate carrying the classic MNR genotype (62V/751/77L/116Y/151M). Each of the PFA invention compounds retained potency against these viruses with fold resistance values of <2.

HIV-1LAI W88S = assay: p24 reduction assay in MT-2 cells, W88S; format: cell-based; conditions: Table 7; for EC50: W88S; for Fold-resistance: W88S relative to wild type virus
Procedure: as §1, §2, §3, §4
(§5) Invention compounds were also evaluated against a panel of HIV-1LAI derived recombinants resistant to PFA and the PFA invention compounds, as shown in Table 7.

HIV-1LAI E89G = assay: p24 reduction assay in MT-2 cells, E89G; format: cell-based; conditions: Table 7; for EC50: E89G; for Fold-resistance: E89G relative to wild type virus
Procedure: as §1, §2, §3, §4, §5

[4] = Table 1, 4xAZT, MOI 0.01, read-out: EC50
[5] = Table 5, 4XAZT relative to wild type virus
[6] = Table 5, 4XAZT, mean ± SD, read-out: EC50
[7] = Table 7, 4XAZT relative to wild type virus
[8] = Human immunodeficiency virus 1, MT2

Cc1cn([C@H]2C[C@H](N=[N+]=[N-])[C@@H](CO)O2)c(=O)[nH]c1=O [AZT, 3′-Azido-3′-deoxythymidine]
EC50 ([1]; Human immunodeficiency virus 1, MT2, Table 8, 4XAZT, read-out: AZT EC50): 290 ± 114 nM
Fold resistance ([1]; Table 8, 4XAZT relative to wild type virus): 7.3

CCCCCCCCCCCCCCCCCCOC[C@@H](O)COP(=O)(O)C(=O)O [B-PFA, 1-O-octadecyl-sn-glycero-3-PFA]
Selectivity Index (MT-2 cells): 781
EC50 (HIV-1LAI M184V/T215Y): 1490 nM
EC50 [1, 4]: 1250 nM
Fold-resistance [1, 5]: (0.8)
EC50 [1, 6]: 1470 ± 630 nM
Fold-resistance [1, 7]: 0.63 (0.8)
EC50 ([1]; Table 7, 4XAZT, read-out: EC50): 1470 nM
EC50 ([2]; Table 2, MOI 0.05): 3480 nM
EC50 [3]: 1100 ± 530 nM
Fold-resistance [3]: (0.6)
EC50 (HIV-1LAI W88S): 20700 nM
Fold-resistance (HIV-1LAI W88S): 1.20 (11.9)
EC50 (HIV-1LAI E89G): > 30000 nM
Fold-resistance (HIV-1LAI E89G): (>17.2)

CCCCCCCCCCCCCCCCCCOC[C@H](COP(=O)(O)C(=O)O)OCC [EB-PFA, 1-O-octadecyl-2-O-ethyl-sn-glycero-3-PFA]
Selectivity Index (MT-2 cells): 1905
EC50 (HIV-1LAI M184V/T215Y): 480 nM
EC50 [1, 4]: 330 nM
Fold-resistance [1, 5]: (0.5)
EC50 [1, 6]: 340 ± 240 nM
Fold-resistance [1, 7]: 0.24 (0.5)
EC50 ([1]; Table 7, 4XAZT, read-out: EC50): 340 nM
EC50 ([2]; Table 2, MOI 0.05): 1230 nM
EC50 [3]: 500 ± 60 nM
Fold-resistance [3]: (0.8)
EC50 (HIV-1LAI W88S): 2390 nM
Fold-resistance (HIV-1LAI W88S): 0.15 (2.7)
EC50 (HIV-1LAI E89G): > 26100 nM
Fold-resistance (HIV-1LAI E89G): (>29.0)

CCCCCCCCCCCCCCCCCCOC[C@H](COP(=O)(O)C(=O)O)OC [MB-PFA, 1-O-octadecyl-2-O-methyl-sn-glycero-3-PFA]
Selectivity Index (MT-2 cells): 953
EC50 (HIV-1LAI M184V/T215Y): 540 nM
EC50 [1, 4]: 460 nM
Fold-resistance [1, 5]: (1.2)
EC50 [1, 6]: 580 ± 220 nM
Fold-resistance [1, 7]: 0.22 (1.2)
EC50 ([1]; Table 7, 4XAZT, read-out: EC50): 580 nM
EC50 [3]: 400 ± 280 nM
Fold-resistance [3]: (0.9)
EC50 (HIV-1LAI W88S): 2490 nM
Fold-resistance (HIV-1LAI W88S): 0.12 (3.2)
EC50 (HIV-1LAI E89G): > 30000 nM
Fold-resistance (HIV-1LAI E89G): (>39.0)

O=C(O)P(=O)(O)O [PFA, phosphonoformate, reference compound]
Selectivity Index (MT-2 cells): 137
EC50 ([1]; Human immunodeficiency virus 1, MT2, Table 1, 4xAZT, MOI 0.01, read-out: EC50): 8820 nM
EC50 ([1]; Human immunodeficiency virus 1, MT2, Table 5, 4XAZT, mean ± SD, read-out: EC50): 12700 ± 8070 nM
EC50 ([1]; Human immunodeficiency virus 1, MT2, Table 7, 4XAZT, read-out: EC50): 12700 nM
Fold-resistance [1, 5]: (0.7)
Fold-resistance [1, 7]: 8.07 (0.7)
EC50 ([2]; Human immunodeficiency virus 1, MT2, Table 2, MOI 0.05): 24400 nM
EC50 [3, 8]: 15500 ± 5040 nM
Fold-resistance [3]: (0.9)
EC50 (HIV-1LAI W88S; [8]): 67100 nM
EC50 (HIV-1LAI E89G; [8]): 241000 nM
